Experimental data as given in patent publication US20140255321A1, “Active Sunscreen Composition” (Rhode Island Hospital, priority 2008, published 2014).

Tested on: Normal Human Dermal Fibroblast cells
Assay: CometAssay of DNA damage in dermal fibroblasts exposed to a solar simulator under a protective layer
Format: cell-based
Conditions: for Comet tail appearance / extent of DNA damage (in words): SYBR I Green visualisation after electrophoresis 25 minutes at 20 volts, FIGS. 2 and 3; for Comet tail appearance / extent of DNA damage (in words) / Integral of Student's Probability Density for Tail Length/Total Length: disodium salt
Excerpt: Using a model for human skin (confluent human dermal fibroblasts, Lonza CC-2511), a fluorescent dye was used to evaluate induction of […]. Stilbene-420 was selected for having a broad range of absorption in the UVB and UVA ranges while retaining a relatively narrow emission spectrum centered around 420 nm. A 2% solution of stilbene in water was used for this study.
Stilbene-420 was compared to both unshielded cells and commercial SPF 45 sunblock in their ability to protect Normal Human Dermal Fibroblast cells raised on Lonza FGM-2 media from exposure to the full power of a solar simulator. A CometAssay was used to assess DNA damage to the cells. The resulting data was filtered and analyzed with an Integral of Student's Probability Density.
Using Fibroblast Grown Medium with 10% FBS, normal Human Dermal Fibroblasts (obtained from Lonza Clonetics) were grown to confluence in a 12-well plate. After 6 days, one of the wells was harvested by scraping and stored at 4° C. Using custom aluminum holders, a UV-transparent quartz window was placed above each well, and space between the window and holder sealed with 5% agarose. The windows were then covered with 0.5 mL of 0.5% Stilbene 420 florescent dye in water, commercial SPF 45 sunblock or left alone. Then, the plate was exposed to a Solar Simulator for 22.5 minutes at full intensity. Afterwards, the cells were harvested by scraping and all the cells were suspended in low-melting point for the CometAssay using a kit produced by Trevigen. Though the results of DNA damage are often easy to see, for example, cell death, quantifying the extent to which this damage has occurred can be difficult. The CometAssay is a test measures fairly low levels of DNA Damage. The basic concept of the test is that, given more incipient DNA damage that is dealt, the more fragments of DNA are created and the smaller they become. By embedding the cells in a low melting point agarose gel and lysing them, release of these DNA fragments occurs without inducing further damage. A simple gel electrophoresis process causes the fragments to begin to migrate out of the lysed cells. As smaller fragments move faster, a comet-like tail develops, which can be visualized by using a dye like SYBR1 Green. The relative size, intensity and length of this tail are directly related to the amount of DNA damage a cell has received.
After lysing the cells and running them on an electrophoresis apparatus for 25 minutes at 20 volts, the DNA fragment “tails” were visualized with SYBR I Green dye under a microscope using a 492 nm laser and stored (FIGS. 2a.-c.). Using a MatLAB script, the images were filtered by their intensity to isolate individual cells (FIG. 3). […] This is indicative of damaged DNA which forms a heterogeneous population of DNA strand lengths.
Each cell was measured by the width of the “core,” where the larger, less-damaged pieces of DNA remained, and the length of the “tail” produced from the migration of the smaller fragments. These values were compared in several ratios and a Student t-test was performed (Table 1). From those t-values an Integral of Student's Probability Density was calculated assuming an unequal variance between the different protections. This latter value determines the probability that the data comes from the same population as the control data. For the sunblock-protected cells, there is just an 11% chance when comparing the ratio of tail length to total length of the “comet” to the same ratio for the control. For the unprotected cells, the probability drops to just 4.7%. But, for the dye-protected cells, there was a 96.6% came from the same population, indicating the dye provided the best protection, keeping the cells closest to their original state.

[1] = Student t-test vs unexposed control cells, Solar Simulator 22.5 minutes at full intensity
[2] = probability that data come from the same population as the control, unequal variance assumed

For O=S(=O)([O-])c1ccccc1C=Cc1ccc(-c2ccc(C=Cc3ccccc3S(=O)(=O)[O-])cc2)cc1.[Na+].[Na+] [Stilbene 420, 2,2″-([1,1′-biphenyl]-4.4′-dyldi-2,1-ethenediyl)bis-benzenesulfonic acid disodium salt], the “Comet tail appearance / extent of DNA damage (in words)” value was “narrower, shorter tail”, the “Comet tail appearance / extent of DNA damage (in words)” value (listed as stillbene) was “do not form tails” and the “Tail Length/Core Width T-Value” [1] was 0.2257. For the same compound, the “Tail Length/Total Length T-Value” [1] was 0.0437, the “Difference T-value” (Student t-test vs unexposed control cells, comet tail/core measures, Solar Simulator 22.5 minutes at full intensity) was 0.1870 and the “Integral of Student's Probability Density for Difference” value [2] was 85.83%. The “Integral of Student's Probability Density for Tail Length/Core Width” value [2] was 82.7%, the “Integral of Student's Probability Density for Tail Length/Total Length” value [2] was 96.63% and the “Integral of Student's Probability Density for Tail Length/Total Length” value (probability that data come from the same population as the control, unequal variance assumed, listed as dye) was 96.6%. The “Greater chance of being from the same population of unexposed cells than the sunblock protected cells” value (statistical comparison of Stilbene-protected vs sunblock-protected cells) was “more than a forty percent greater chance”.
